Source: patent US20140163067A1, “Methods of Treatment of Limited Cognitive Impairment” (ENVIVO PHARMACEUTICALS, INC., priority 2011, published 2014)

Test system: subjects suffering from LCI
Experiment: Sensory electrophysiological responses (P50 gating, MMN, P300, N100) in LCI subjects
Format: in vivo, human
Conditions: compared with placebo, effects expected at a daily dose as low as 0.3 mg, dosed daily for 20 days
Protocol: These effects are expected at a daily dose as low as 0.3 mg of (R)-7-chloro-N-(quinuclidin-3-yl)benzo[b]thiophene-2-carboxamide hydrochloride.
Impairment of the ability of central nervous system to inhibit irrelevant sensory information has long been used as a model for understanding the deficits of attention seen in subjects. Two approaches to the measurement of this ability have commonly been employed (see (Heinrichs, 2004; Potter et al., 2006; Turetsky et al., 2007; Umbricht and Krljes, 2005) for reviews and meta-analyses): (1) the sensory gating paradigm in which the presentation of one stimulus normally suppresses the response elicited by a stimulus which rapidly follows it; and (2) the oddball or orienting paradigm in which a rare or unexpected event elicits a diminished response in subjects because attentional resources are inappropriately focused on less salient aspects of the environment.
Two responses are commonly used assess brain activity: (1) the auditory P50 response elicited by the second member of a pair of clicks; and (2) the mismatch negativity (MMN) or N2 response evoked by a rarely occurring pure tone of no instructed relevance to the subject. Abnormalities in both P50 gating and the MMN have been reported in schizophrenic subjects. […]

For `Cl.O=C(N[C@H]1CN2CCC1CC2)c1cc2cccc(Cl)c2s1` [(R)-7-chloro-N-(quinuclidin-3-yl)benzo[b]thiophene-2-carboxamide hydrochloride], the “sensory electrophysiological responses which correlate with improved cognitive and functional performance” value was “can improve sensory electrophysiological responses”.
